Common to all, as to set-up: key: −: no saccharide-transferred product was detected through transfer reaction to acceptor; ∀: a saccharide-transferred product was detected in an amount less than one percent through transfer reaction to acceptor; +: a saccharide-transferred product was detected in an amount over one percent but less than ten percent through transfer reaction to acceptor; ++: a saccharide-transferred product was detected in an amount over ten percent through transfer reaction to acceptor

Assay [1] deals with α-isomaltosylglucosaccharide-forming enzyme. The experiment in a line: Transfer-acceptor specificity, Enzyme of Strain C11. The format is biochemical, Bacillus globisporus C11. The following applies: acceptor 1.6%, PINE-DEX #100 donor 4%, one unit/g donor, 30° C., pH 6.0, 24 hours. The protocol:
(§1) Using different saccharides, it was tested whether the saccharides were used as transferring-acceptors for the α-isomaltosylglucosaccharide-forming enzyme of the present invention. A solution of D-glucose, D-xylose, L-xylose, D-galactose, D-fructose, D-mannose, D-arabinose, D-fucose, D-psicose, L-sorbose, L-rhamnose, methyl-α-glucopyranoside, methyl-β-glucopyranoside, N-acetyl-glucosamine, sorbitol, trehalose, isomaltose, isomaltotriose, cellobiose, gentibiose, glycerol, maltitol, lactose, sucrose, α-cyclodextrin, β-cyclodextrin, γ-cyclodextrin, or L-ascorbic acid was prepared.
(§2) To each solution with a saccharide concentration of 1.6% was added “PINE-DEX #100”, a partial starch hydrolysate, as a saccharide donor, to give a concentration of 4%, and admixed with one unit/g saccharide donor, d.s.b., of either of purified specimens of α-isomaltosylglucosaccharide-forming enzyme from Bacillus globisporus C9 obtained by the method in Experiment 4-2, Bacillus globisporus C11 obtained by the method in Experiment 7-2, Bacillus globisporus N75 obtained by the method in Experiment 11-2, or Arthrobacter globiformis A19 obtained by the method in Experiment 15-2, and incubated at 30° C. and pH 6.0, except that pH 8.4 was used for the enzyme from Arthrobacter globiformis A19, for 24 hours. The reaction mixtures of the post-enzymatic reactions were analyzed on gas chromatography (abbreviated as “GLC” hereinafter) for monosaccharides and disaccharides as acceptors, and on HPLC for trisaccharides as acceptors to confirm whether these saccharides could be used as their transfer acceptors. In the case of performing GLC, the following apparatuses and conditions are used: GLC apparatus, “GC-16A” commercialized by Shimadzu Corporation, Tokyo, Japan; column, a stainless-steel column, 3 mm in diameter and 2 m in length, packed with 2% “SILICONE OV-17/[…]”, commercialized by GL Sciences Inc., Tokyo, Japan; carrier gas, nitrogen gas at a flow rate of 40 ml/min under temperature conditions of increasing from 160° C. to 320° C. at an increasing temperature rate of 7.5° C./min; and detection, a hydrogen flame ionization detector. In the case of HPLC analysis, the apparatuses and conditions used are: HPLC apparatus, “CCPD” commercialized by Tosoh Corporation, Tokyo, Japan; column, “ODS-AQ-303” commercialized by YMC Co., Ltd., Tokyo, Japan; eluent, water at a flow rate of 0.5 ml/min; and detection, a differential refractometer.

For assay [2] the test system is unchanged. Description: Transfer-acceptor specificity, Enzyme of Strain N75. The assay is classed as biochemical, Bacillus globisporus N75. The following applies: acceptor 1.6%, PINE-DEX #100 donor 4%, one unit/g donor, 30° C., pH 6.0, 24 hours. The protocol:
as §1, §2

The test system is the same in assay [3]. The experiment in a line: Transfer-acceptor specificity, Enzyme of Strain A19. The format is biochemical, Arthrobacter globiformis A19. The following applies: acceptor 1.6%, PINE-DEX #100 donor 4%, one unit/g donor, 30° C., pH 8.4, 24 hours. The protocol:
as §1, §2

Assay [4] has the same test system. Description: Transfer-acceptor specificity, Enzyme of Strain C9. The format is biochemical, Bacillus globisporus C9. The following applies: acceptor 1.6%, PINE-DEX #100 donor 4%, one unit/g donor, 30° C., pH 6.0, 24 hours. The protocol:
as §1, §2

The record followed here is patent publication US7811797B2, “α-isomaltosylglucosaccharide-forming enzyme, process and uses of the same” (Kabushiki Kaisha Hayashibara Seibutsu Kagaku Kenkyujo, priority 2000, dated 2010).

As to `O=C1O[C@H]([C@@H](O)CO)C(O)=C1O` [L-Ascorbic acid], in assay [1], the “Product of transferring reaction, Enzyme of Strain C11” value (“Product … of Strain C11” below) is recorded as “+ (a saccharide-transferred product was detected in an amount over one percent but less than ten percent through transfer reaction to acceptor)”. Besides, the “Product of transferring reaction, Enzyme of Strain N75” value (“Product … of Strain N75” for short) in assay [2] is “+ (a saccharide-transferred product was detected in an amount over one percent but less than ten percent through transfer reaction to acceptor)”. The “Product of transferring reaction, Enzyme of Stain A19” value (from here on “Product … of Stain A19”) in assay [3] is “+ (a saccharide-transferred product was detected in an amount over one percent but less than ten percent through transfer reaction to acceptor)”. In assay [4], the “Product of transferring reaction, Enzyme of Strain C9” value (“Product … of Strain C9” for short) is on record as “+ (a saccharide-transferred product was detected in an amount over one percent but less than ten percent through transfer reaction to acceptor)”.
With `O=C[C@@H](O)[C@@H](O)[C@H](O)[C@H](O)CO` [D-Mannose], the “Product … of Strain C11” value in assay [1] is “−”. In addition, the “Product … of Strain N75” value in assay [2] is “−”. In assay [3], the “Product … of Stain A19” value is “∀ (a saccharide-transferred product was detected in an amount less than one percent through transfer reaction to acceptor)”. In addition, in assay [4], the “Product … of Strain C9” value is “−”.
`O=C[C@H](O)[C@@H](O)[C@@H](O)[C@H](O)CO` [D-Galactose]: in assay [1], the “Product … of Strain C11” value is “+ (a saccharide-transferred product was detected in an amount over one percent but less than ten percent through transfer reaction to acceptor)”. In assay [2], the “Product … of Strain N75” value is reported as “+ (a saccharide-transferred product was detected in an amount over one percent but less than ten percent through transfer reaction to acceptor)”. The “Product … of Stain A19” value in assay [3] is given as “∀ (a saccharide-transferred product was detected in an amount less than one percent through transfer reaction to acceptor)”. Further, the “Product … of Strain C9” value in assay [4] was “+ (a saccharide-transferred product was detected in an amount over one percent but less than ten percent through transfer reaction to acceptor)”.
For the compound `OC[C@H]1O[C@@H]2O[C@H]3[C@H](O)[C@@H](O)[C@@H](O[C@H]4[C@H](O)[C@@H](O)[C@@H](O[C@H]5[C@H](O)[C@@H](O)[C@@H](O[C@H]6[C@H](O)[C@@H](O)[C@@H](O[C@H]7[C@H](O)[C@@H](O)[C@@H](O[C@H]8[C@H](O)[C@@H](O)[C@@H](O[C@H]1[C@H](O)[C@H]2O)O[C@@H]8CO)O[C@@H]7CO)O[C@@H]6CO)O[C@@H]5CO)O[C@@H]4CO)O[C@@H]3CO` [β-Cyclodextrin], the “Product … of Strain C11” value in assay [1] is reported as “−”. The “Product … of Strain N75” value in assay [2] is “−”. Also, the “Product … of Stain A19” value in assay [3] is “−”. Also, the “Product … of Strain C9” value in assay [4] is given as “−”.
Regarding `OC[C@H]1O[C@@H]2O[C@H]3[C@H](O)[C@@H](O)[C@@H](O[C@H]4[C@H](O)[C@@H](O)[C@@H](O[C@H]5[C@H](O)[C@@H](O)[C@@H](O[C@H]6[C@H](O)[C@@H](O)[C@@H](O[C@H]7[C@H](O)[C@@H](O)[C@@H](O[C@H]8[C@H](O)[C@@H](O)[C@@H](O[C@H]9[C@H](O)[C@@H](O)[C@@H](O[C@H]1[C@H](O)[C@H]2O)O[C@@H]9CO)O[C@@H]8CO)O[C@@H]7CO)O[C@@H]6CO)O[C@@H]5CO)O[C@@H]4CO)O[C@@H]3CO` [γ-Cyclodextrin], in assay [1], the “Product … of Strain C11” value is given as “−”. The “Product … of Strain N75” value in assay [2] was “−”. In assay [3], the “Product … of Stain A19” value was “−”. Besides, the “Product … of Strain C9” value in assay [4] is given as “−”.
`O=C[C@@H](O)[C@H](O)[C@@H](O)CO` [L-Xylose]: in assay [1], the “Product … of Strain C11” value is “++ (a saccharide-transferred product was detected in an amount over ten percent through transfer reaction to acceptor)”. Besides, the “Product … of Strain N75” value in assay [2] is recorded as “++ (a saccharide-transferred product was detected in an amount over ten percent through transfer reaction to acceptor)”. Further, the “Product … of Stain A19” value in assay [3] is reported as “+ (a saccharide-transferred product was detected in an amount over one percent but less than ten percent through transfer reaction to acceptor)”. Moreover, the “Product … of Strain C9” value in assay [4] is on record as “++ (a saccharide-transferred product was detected in an amount over ten percent through transfer reaction to acceptor)”.
For the compound `OCC(O)CO` [Glycerol], the “Product … of Strain C11” value in assay [1] was “+ (a saccharide-transferred product was detected in an amount over one percent but less than ten percent through transfer reaction to acceptor)”. Also, the “Product … of Strain N75” value in assay [2] is given as “+ (a saccharide-transferred product was detected in an amount over one percent but less than ten percent through transfer reaction to acceptor)”. In addition, the “Product … of Stain A19” value in assay [3] is “+ (a saccharide-transferred product was detected in an amount over one percent but less than ten percent through transfer reaction to acceptor)”. Further, in assay [4], the “Product … of Strain C9” value is reported as “+ (a saccharide-transferred product was detected in an amount over one percent but less than ten percent through transfer reaction to acceptor)”.
As for `OC[C@@H](O)[C@@H](O)[C@H](O)[C@@H](O)CO` [Sorbitol], the “Product … of Strain C11” value in assay [1] is given as “−”. The “Product … of Strain N75” value in assay [2] was “−”. Also, the “Product … of Stain A19” value in assay [3] is recorded as “−”. Also, the “Product … of Strain C9” value in assay [4] is on record as “−”.
As to `O=C[C@@H](O)[C@H](O)[C@H](O)CO` [D-Arabinose], the “Product … of Strain C11” value in assay [1] is listed as “∀ (a saccharide-transferred product was detected in an amount less than one percent through transfer reaction to acceptor)”. In addition, the “Product … of Strain N75” value in assay [2] is reported as “∀ (a saccharide-transferred product was detected in an amount less than one percent through transfer reaction to acceptor)”. Also, the “Product … of Stain A19” value in assay [3] is recorded as “∀ (a saccharide-transferred product was detected in an amount less than one percent through transfer reaction to acceptor)”. In addition, the “Product … of Strain C9” value in assay [4] is reported as “∀ (a saccharide-transferred product was detected in an amount less than one percent through transfer reaction to acceptor)”.
For `OC[C@H]1O[C@@H]2O[C@H]3[C@H](O)[C@@H](O)[C@@H](O[C@H]4[C@H](O)[C@@H](O)[C@@H](O[C@H]5[C@H](O)[C@@H](O)[C@@H](O[C@H]6[C@H](O)[C@@H](O)[C@@H](O[C@H]7[C@H](O)[C@@H](O)[C@@H](O[C@H]1[C@H](O)[C@H]2O)O[C@@H]7CO)O[C@@H]6CO)O[C@@H]5CO)O[C@@H]4CO)O[C@@H]3CO` [α-Cyclodextrin], in assay [1], the “Product … of Strain C11” value is on record as “−”. Also, the “Product … of Strain N75” value in assay [2] is “−”. Besides, in assay [3], the “Product … of Stain A19” value was “−”. In assay [4], the “Product … of Strain C9” value is listed as “−”.
Take `C[C@H](O)[C@H](O)[C@@H](O)[C@@H](O)C=O` [L-Rhamnose]: in assay [1], the “Product … of Strain C11” value is “−”. The “Product … of Strain N75” value in assay [2] is given as “−”. Moreover, the “Product … of Stain A19” value in assay [3] is “−”. Besides, the “Product … of Strain C9” value in assay [4] was “−”.
